Source: patent US20260274895A1, “DE NOVO DESIGNED MEMBRANE-TRAVERSING AND ORALLY BIOAVAILABLE MACROCYCLES” (UNIVERSITY OF WASHINGTON, priority 2022, published 2026)
Where a SMILES comes first, the peptide text is derived from it. [ ]: non-standard residue; d: D form. NMeF = CN[C@@H](Cc1ccccc1)C(=O)O; dNMeF = CN[C@H](Cc1ccccc1)C(=O)O; NMeL = CN[C@@H](CC(C)C)C(=O)O; dNMeL = CN[C@H](CC(C)C)C(=O)O; NMeV = CN[C@H](C(=O)O)C(C)C; NMeA = CN[C@@H](C)C(=O)O; dNMeA = CN[C@H](C)C(=O)O

Details: PAMPA, PAMPA_Papp_Avg (apparent permeability)

Papp [×10⁻⁶ cm/s] | SMILES
0.315 | CC[C@H](C)[C@@H]1NC(=O)[C@H](CC(C)C)N(C)C(=O)[C@H]2CCCN2C(=O)[C@H]2CCCN2C(=O)[C@H](Cc2ccccc2)NC(=O)[C@@H](CC(C)C)NC(=O)[C@H]2CCCN2C(=O)[C@@H]2CCCN2C1=O [Design D8.27, Fpp*LIPpl] (cyclo(F[dP][dP][NMeL]IP[dP][dL]))
0.236 | CSCC[C@@H]1NC(=O)[C@@H]2CCCN2C(=O)[C@@H](C(C)C)NC(=O)[C@@H](C)N(C)C(=O)[C@@H](CC(C)C)NC(=O)[C@@H](CC(C)C)NC(=O)[C@@H]2CCCN2C(=O)[C@H]2CCCN2C1=O [Design D8.29, MpPll*avP] (cyclo([dL][dL][dNMeA][dV]PM[dP]P))
5.23 | CC(C)C[C@@H]1C(=O)N[C@H](CC(C)C)C(=O)N2CCC[C@@H]2C(=O)N2CCC[C@@H]2C(=O)N(C)[C@@H](CC(C)C)C(=O)N[C@H](CC(C)C)C(=O)N2CCC[C@@H]2C(=O)N2CCC[C@H]2C(=O)N1C [Design D8.32, pp*LlpP*ll] (cyclo([dNMeL][dL][dP][dP][NMeL][dL][dP]P))
6 | CC[C@@H](C)[C@H]1NC(=O)[C@H]2CCCN2C(=O)[C@@H]2CCCN2C(=O)[C@@H]([C@H](C)CC)NC(=O)[C@@H](Cc2ccccc2)NC(=O)[C@@H](Cc2ccccc2)N(C)C(=O)[C@@H]2CCCN2C(=O)[C@@H](C(C)C)NC1=O [Design D8.33, fiPpivP*f] (cyclo(P[dNMeF][dF][dI]P[dP][dI][dV]))
0.316 | CC[C@H](C)[C@@H]1NC(=O)[C@@H](C)N(C)C(=O)[C@@H](C)N(C)C(=O)[C@@H]2CCCN2C(=O)[C@H](CC(C)C)NC(=O)[C@H](CC(C)C)NC(=O)[C@@H](CC(C)C)NC(=O)[C@@H]2CCCN2C(=O)[C@H]2CCCN2C1=O [Design D9.11, PlLLP*a*aIp] (cyclo([dL]LLP[dNMeA][dNMeA]I[dP]P))
0.421 | CC[C@H](C)[C@@H]1NC(=O)[C@@H](CC(C)C)NC(=O)[C@@H]2CCCN2C(=O)[C@@H]2CCCN2C(=O)[C@@H](CC(C)C)NC(=O)[C@@H]2CCCN2C(=O)[C@H]2CCCN2C(=O)[C@@H](C(C)C)NC(=O)[C@@H](C)N(C)C1=O [Design D9.14, PlI*avpPlP] (cyclo([dL]PP[dL]I[dNMeA][dV][dP]P))
0.341 | CC[C@H](C)[C@@H]1NC(=O)[C@@H](C)NC(=O)[C@@H]2CCCN2C(=O)[C@H]2CCCN2C(=O)[C@@H]2CCCN2C(=O)[C@@H](C)NC(=O)[C@@H](Cc2ccccc2)NC(=O)[C@@H](CC(C)C)N(C)C(=O)[C@@H](CC(C)C)N(C)C1=O [Design D9.15, PpPaI*l*lfa] (cyclo([dA]I[dNMeL][dNMeL][dF][dA]P[dP]P))
1.99 | CC[C@@H](C)[C@H]1NC(=O)[C@H]2CCCN2C(=O)[C@@H](C)NC(=O)[C@@H](CC(C)C)N(C)C(=O)[C@H]([C@@H](C)CC)NC(=O)[C@@H](C(C)C)NC(=O)[C@@H](CC(C)C)N(C)C(=O)[C@@H]2CCCN2C(=O)[C@@H]2CCCN2C1=O [Design D9.26, piPP*lvI*la] (cyclo(I[dNMeL][dA][dP][dI]PP[dNMeL][dV]))
1.57 | CSCC[C@@H]1NC(=O)[C@@H](C)N(C)C(=O)[C@@H]2CCCN2C(=O)[C@@H](CC(C)C)NC(=O)[C@H](CC(C)C)N(C)C(=O)[C@H]2CCCN2C(=O)[C@H](CC(C)C)NC(=O)[C@@H](CC(C)C)NC(=O)[C@@H](C)NC1=O [Design D9.28, lLp*LlP*aMa] (cyclo(L[dP][NMeL][dL]P[dNMeA]M[dA][dL]))
0.664 | CC(C)C[C@@H]1C(=O)N[C@H](C)C(=O)N[C@@H](C(C)C)C(=O)N2CCC[C@@H]2C(=O)N[C@H](C(C)C)C(=O)N2CCC[C@@H]2C(=O)N2CCC[C@H]2C(=O)N[C@H](C)C(=O)N(C)[C@H](CC(C)C)C(=O)N1C [Design D9.29, vpPa*l*laVp] (cyclo([dA][dNMeL][dNMeL][dA]V[dP][dV][dP]P))
1.6 | CC[C@@H](C)[C@H]1NC(=O)[C@H](CC(C)C)NC(=O)[C@@H](C)N(C)C(=O)[C@@H]2CCCN2C(=O)[C@H](C)NC(=O)[C@@H](CC(C)C)NC(=O)[C@H]2CCCN2C(=O)[C@H](C(C)C)NC(=O)[C@@H](CC(C)C)N(C)C1=O [Design D9.30, plAP*aLi*lV] (cyclo(AP[dNMeA]L[dI][dNMeL]V[dP][dL]))
1.02 | CC[C@@H](C)[C@H]1NC(=O)[C@H](Cc2ccccc2)NC(=O)[C@@H](C)NC(=O)[C@@H](CC(C)C)N(C)C(=O)[C@@H]2CCCN2C(=O)[C@H](C)NC(=O)[C@H]2CCCN2C(=O)[C@@H]2CCCN2C(=O)[C@@H](Cc2ccccc2)NC1=O [Design D9.41, PpAP*laFif] (cyclo(AP[dNMeL][dA]F[dI][dF]P[dP]))
2.52 | CC[C@H](C)[C@@H]1NC(=O)[C@@H](C(C)C)NC(=O)[C@@H]2CCCN2C(=O)[C@@H](CC(C)C)N(C)C(=O)[C@@H](C(C)C)NC(=O)[C@H](CC(C)C)N(C)C(=O)[C@H]2CCCN2C(=O)[C@@H](C)NC(=O)[C@H](Cc2ccccc2)N(C)C(=O)[C@H]2CCCN2C1=O [Design D10.3., Ip*Fap*Lv*lPv] (cyclo(I[dP][NMeF][dA][dP][NMeL][dV][dNMeL]P[dV]))
0.509 | CC(C)C[C@@H]1C(=O)N2CCC[C@@H]2C(=O)N(C)[C@@H](C(C)C)C(=O)N[C@@H](C(C)C)C(=O)N2CCC[C@H]2C(=O)N2CCC[C@@H]2C(=O)N[C@@H](C)C(=O)N[C@H](C(C)C)C(=O)N(C)[C@@H](CC(C)C)C(=O)N[C@@H](C)C(=O)N1C [Design D10.6, PpAv*LA*lp*VV] (cyclo(A[dNMeL][dP][NMeV]VP[dP]A[dV][NMeL]))
2.69 | CC[C@@H](C)[C@H]1NC(=O)[C@H](CC(C)C)N(C)C(=O)[C@H]2CCCN2C(=O)[C@H](CC(C)C)NC(=O)[C@H](Cc2ccccc2)N(C)C(=O)[C@H](CC(C)C)N(C)C(=O)[C@@H](C(C)C)NC(=O)[C@H](C)NC(=O)[C@H]2CCCN2C(=O)[C@@H]2CCCN2C1=O [Design D10.17, *L*FLp*LiPpAv] (cyclo(A[dV][NMeL][NMeF]L[dP][NMeL][dI]P[dP]))
0.756 | CC[C@@H](C)[C@H]1NC(=O)[C@H](C(C)C)NC(=O)[C@H]2CCCN2C(=O)[C@@H]2CCCN2C(=O)[C@H](CC(C)C)N(C)C(=O)[C@H](C)N(C)C(=O)[C@@H](CC(C)C)N(C)C(=O)[C@H](C)NC(=O)[C@@H](Cc2ccccc2)NC(=O)[C@@H]2CCCN2C1=O [Design D10.25, fA*l*A*LPpViP] (cyclo(A[dNMeL][NMeA][NMeL]P[dP]V[dI]P[dF]))
0.808 | CC[C@@H](C)[C@H]1NC(=O)[C@@H]2CCCN2C(=O)[C@@H](Cc2ccccc2)NC(=O)[C@H](CC(C)C)N(C)C(=O)[C@H](C)NC(=O)[C@H]2CCCN2C(=O)[C@@H]2CCCN2C(=O)[C@H](CC(C)C)NC(=O)[C@H](CC(C)C)N(C)C(=O)[C@H](C)N(C)C1=O [Design D10.26, Pi*A*LLPpA*Lf] (cyclo(A[NMeL][dF]P[dI][NMeA][NMeL]LP[dP]))
1.86 | CC(C)C[C@H]1NC(=O)[C@H](CC(C)C)N(C)C(=O)[C@@H](Cc2ccccc2)NC(=O)[C@@H](C)N(C)C(=O)[C@@H]2CCCN2C(=O)[C@H](C(C)C)NC(=O)[C@H](CC(C)C)N(C)C(=O)[C@@H](C)NC(=O)[C@@H]2CCCN2C(=O)[C@H]2CCCN2C1=O [Design D10.32, P*af*LlpPa*LV] (cyclo([dA][NMeL]VP[dNMeA][dF][NMeL][dL][dP]P))
0.34 | CSCC[C@@H]1NC(=O)[C@H](CC(C)C)NC(=O)[C@@H]2CCCN2C(=O)[C@H]2CCCN2C(=O)[C@@H](C)NC(=O)[C@H]2CCCN2C(=O)[C@@H](CC(C)C)NC(=O)[C@@H](C)N(C)C(=O)[C@H](CC(C)C)N(C)C(=O)[C@@H](C)N(C)C1=O [Design D10.40, M*a*L*alpapPL] (cyclo(LM[dNMeA][NMeL][dNMeA][dL][dP][dA][dP]P))
